This test addresses Protein farnesyltransferase (Homo sapiens, UniProt P49354+P49356). Put plainly: Inhibition of human recombinant FTase activity using dansyl-GCVLS-peptide. It is filed as protein-complex assay.
The term IC50 denotes the concentration that inhibits the measured activity by half. In the case of `CN(C)c1cc[n+](C(C=C(C#N)C#N)C(=O)N2c3ccccc3Sc3ccc(Cl)cc32)cc1` (stereo not drawn), the concentration for half-maximal inhibition (IC50) amounted to 3.18 µM.

As to `CCOC(=O)/C(C#N)=C/C(C(=O)N1c2ccccc2Sc2ccc(Cl)cc21)[n+]1ccc(N(C)C)cc1` (stereo not drawn), the half-maximal inhibitory concentration (IC50) came out at 4.92 µM. With `N#CC(C#N)=CC(C(=O)N1c2ccccc2Sc2ccccc21)[n+]1ccccc1` (stereo not drawn), the IC50 worked out at 13.1 µM. As for `CCOC(=O)/C(C#N)=C/C(C(=O)N1c2ccccc2Sc2ccccc21)[n+]1ccccc1` (stereo not drawn), the figure is 15 µM; as for `Cc1ccc[n+](C(C=C(C#N)C#N)C(=O)N2c3ccccc3Sc3ccccc32)c1` (stereo not drawn), 11 µM; as for `CCOC(=O)/C(C#N)=C/C(C(=O)N1c2ccccc2Sc2ccccc21)[n+]1cccc(C)c1` (stereo not drawn), 7.01 µM. As for `COc1cc[n+](C(C=C(C#N)C#N)C(=O)N2c3ccccc3Sc3ccccc32)cc1` (stereo not drawn), the figure is 10.3 µM; as for `CCOC(=O)/C(C#N)=C/C(C(=O)N1c2ccccc2Sc2ccccc21)[n+]1ccc(OC)cc1` (stereo not drawn), 13.7 µM. With `Cc1cc(C)c[n+](C(C=C(C#N)C#N)C(=O)N2c3ccccc3Sc3ccccc32)c1` (stereo not drawn), the IC50 was 6.36 µM. In the case of `CCOC(=O)/C(C#N)=C/C(C(=O)N1c2ccccc2Sc2ccccc21)[n+]1cc(C)cc(C)c1` (stereo not drawn), the half-inhibitory concentration (IC50) stood at 7.27 µM. As for `N#CC(C#N)=CC=C1C=CN(CC(=O)N2c3ccccc3Sc3ccccc32)C=C1`, the IC50 was 0.65 µM. As for `CCOC(=O)/C(C#N)=C\C=C1C=CN(CC(=O)N2c3ccccc3Sc3ccccc32)C=C1`, the IC50 worked out at 0.63 µM.

As to `N#CC(C#N)=C/C=C1\C=CC=CN1CC(=O)N1c2ccccc2Sc2ccccc21`, the IC50 was 1.2 µM. In the case of `CCOC(=O)/C(C#N)=C\C=C1/C=CC=CN1CC(=O)N1c2ccccc2Sc2ccccc21`, the half-inhibitory concentration (IC50) was 1.07 µM. As for `CCOC(=O)/C(C#N)=C\C=C1C=CN(CC(=O)N(CC)CC)C=C1`, the figure is 43.1 µM; as for `CN(C)c1cc[n+](C(C=C(C#N)C#N)C(=O)N2c3ccccc3Sc3ccccc32)cc1` (stereo not drawn), 4.67 µM; as for `CCOC(=O)/C(C#N)=C/C(C(=O)N1c2ccccc2Sc2ccccc21)[n+]1ccc(N(C)C)cc1` (stereo not drawn), 5.33 µM.

Regarding `CN(C)c1cc[n+](C(/C=C/C(=O)O)C(=O)N2c3ccccc3Sc3ccccc32)cc1` (stereo not drawn), the 50% inhibitory concentration (IC50) turned out to be 86.5 µM.

The values above are taken from ChEMBL document CHEMBL2311484, “Synthesis and biological evaluation of a new series of phenothiazine-containing protein farnesyltransferase inhibitors” (Eur J Med Chem, 2013).
